What all share (experiment): NCI-60 cell line screen, 48 h
In test [1] the test system is A498 renal.
Test [2] concerns HCT-116 colon.
The subject of test [3] is K-562 leukemia.
Test [4] concerns M14 melanoma.
The test system of test [5] is MDA-MB-435.
The subject of test [6] is MOLT-4 leukemia.
The test system of test [7] is NCI-H226 lung.
Test [8] relates to SW-620 colon.
Test [9] concerns SK-MEL-28 melanoma.
In test [10] the test system is HL-60(TB) leukemia.

For eleven compounds, GI50 and TGI results are on record in PubChem BioAssay (NCI).

Structures are written as SMILES.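 Each compound was tested at five concentrations against cells in 96-well plates for 48 hours. GI50 marks 50% less growth. TGI marks complete inhibition of growth.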

Consider `CCN(CC)CCOc1c(OC)c(Br)cc2c(C)c(C(=O)OC)oc12`, for which the GI50 in [1] was 7.39 µM; in [2], 1.17 µM; in test [3], 0.332 µM; in [4] it was 1.18 µM; in test [5], 1.03 µM; in test [6], 0.374 µM. Moreover, the figures for the GI50 in test [7] and in test [8] were 1.16 µM and 0.802 µM, respectively. The TGI in test [1] turned out to be 14.6 µM; in test [2], 3.15 µM; in [3], 2.09 µM; in test [4] it was 4.4 µM; in test [5] it was 2.62 µM; in test [6] it was 1.23 µM. In addition, the figures for the TGI in test [7] and in [8] were 3.39 µM and 2.04 µM, respectively.

`CCn1c(=O)c2c3ccc(OC(C)=O)cc3[nH]c2c2ccc(OC(C)=O)cc21`: the TGI in test [2] is 30.1 µM; in [3], > 100 µM; in test [4], > 100 µM; in test [5] it was > 100 µM; in test [6], 74.5 µM; in [7] it was > 100 µM. For the same compound, the TGI in test [9] and in test [8] was > 100 µM in each case.

`Clc1ccc(-c2c(C3=NCCN3)nnn2-c2ccccc2)cc1`: the TGI in [1], in test [2], in test [10], in [3], in test [4] and in [6] was > 100 µM throughout. Also, the TGI in test [7], in [9] and in test [8] was > 100 µM throughout.

With `COC(=O)[C@H]1N[C@@H](C(=O)OC)C23CCC[C@H]2CC[C@]1(C(OC)OC)C3`, the TGI in test [1], in test [2], in test [10], in [3], in test [4] and in test [6] was > 100 µM throughout. Besides, the TGI in test [7], in test [9] and in test [8] was > 100 µM each time.

On to `COc1cc(C2c3cc4c(cc3[C@@H](OCCN(C)C)C3COC(=O)[C@H]23)OCO4)cc(OC)c1O` (some centres undefined), for which the TGI in [1] is 0.713 µM; in test [2] it was 7.33 µM; in test [10] it was > 100 µM; in [3], > 100 µM; in [4], 3.22 µM; in [6], 0.0878 µM. In addition, the TGI worked out at 0.288 µM in test [7], 4.1 µM in test [9] and 3.59 µM in test [8]. For the same compound, in test [6], the GI50 is 0.0105 µM.

For `O=C(O)Cc1ccccc1CCc1ccccc1Cl`, the TGI in test [1], in [2], in test [10], in test [3], in test [4] and in [6] was > 100 µM in each case. In addition, the TGI in test [7], in test [9] and in [8] was > 100 µM each time.

As for `COc1ccc(N2C(=O)C3c4[nH]c5ccccc5c4C4CCCCCCC4C3C2=O)cc1` (centres undefined), the TGI in [1] was 52.3 µM; in [2], 15.3 µM; in [10], 74 µM; in test [3] it was > 75.2 µM; in test [4] it was 37.4 µM; in [6], 37.9 µM. In addition, the TGI in test [7] was determined as 31.6 µM; in test [9] it was 42 µM; in test [8] it was 34.1 µM.

As for `CN1C(=O)C2C=CC1C1CCC2N(C)C1=O` (centres undefined), the TGI in test [1], in [2], in [10], in [3], in test [4] and in test [6] was > 100 µM in each case. Moreover, the TGI in test [7], in test [9] and in test [8] was > 100 µM in each case.

With `CCOC(=O)C1=C(Nc2ccc(Cl)c(Cl)c2)OC/C1=N\NC(=O)Cc1ccccc1`, the TGI in test [1], in test [2], in test [10], in test [3], in test [4] and in test [6] was > 100 µM in each case. Moreover, the TGI in test [7], in [9] and in test [8] was > 100 µM throughout.

Turning to `COc1cc(C2c3cc4c(cc3[C@@H](N(C)C)[C@H]3COC(=O)C23)OCO4)cc(OC)c1O` (some centres undefined), the TGI in [1] was 56 µM; in [2] it was > 100 µM; in [10] it was > 100 µM; in test [3] it was > 100 µM; in test [4], > 100 µM; in test [6], > 100 µM. The TGI in test [7], in [9] and in [8] was > 100 µM each time.

Consider `C/C=C(/C)c1cnc(CC(C)C)c(=O)[nH]1`, for which the TGI in test [1], in test [2], in test [3], in [5], in test [6] and in [9] was > 100 µM throughout. The TGI in [8] was > 100 µM.
